Source: paper PMC11868595, “Safety, pharmacokinetics and efficacy of HA121-28 in patients with advanced solid tumors and RET fusion-positive non-small-cell lung cancer: a multicenter, open-label, single-arm phase 1/2 trial” (Signal Transduction and Targeted Therapy, 2025)
Read-outs that look alike come from different tables or passages of the source. Marks after values point to notes of the source that are not given here.

What was measured:
[1] = tested on: human gastric cancer SGC-7901 tumors; experiment: SGC-7901 tumors in nude mice; format: in vivo
Text: (§1) was higher than that of vandetanib .
as §1
Table S16. Efficacy of HA121-28 on human gastric cancer SGC-7901 tumors

[2] = tested on: RET fusion-positive NSCLC; details: cited from earlier work
[3] = tested on: human esophageal cancer ECA-109 tumors; experiment: ECA-109 tumors in nude mice; format: in vivo; details: 8 mg/kg
[4] = tested on: human esophageal cancer KYSE-150 xenografts; experiment: KYSE-150 xenografts in nude mice; format: in vivo
[5] = tested on: human melanoma A375 tumors; experiment: A375 tumors in nude mice; format: in vivo
KYSE-150 cells = experiment: Tumor cell proliferation in vitro; format: cell-based, human; details: Homo sapiens, KYSE-150; read-out: IC50, proliferation
[6] = tested on: human thyroid cancer TT tumors; experiment: TT tumors in nude mice; format: in vivo; details: TT tumors
Text: as §1, §1
Table S15. Efficacy of HA121-28 on human thyroid cancer TT tumors

A498 cells = experiment: Tumor cell proliferation in vitro; format: cell-based; details: Homo sapiens
HUVEC cells = experiment: cells; details: Homo sapiens
EGFR and ERK activation = experiment: EGF-stimulated activation of EGFR and ERK in A431 cells; format: cell-based, human; details: 10 ng/mL EGF, concentration-dependent
SGC-7901 cells = experiment: Tumor cell proliferation in vitro; format: cell-based, human; details: Homo sapiens, SGC-7901; SGC7901
CFPAC-1 cells = experiment: Tumor cell proliferation in vitro; format: cell-based; details: Homo sapiens
A431 cells = experiment: Tumor cell proliferation in vitro; format: cell-based, human; details: Homo sapiens, A-431, read-out: IC50, proliferation
BEL-7402 cells = experiment: Tumor cell proliferation in vitro; format: cell-based; details: Homo sapiens, Bel-7402; read-out: IC50, proliferation
8305C cells = experiment: Tumor cell proliferation in vitro; format: cell-based; details: Homo sapiens
HCT116 cells = experiment: Tumor cell proliferation in vitro; format: cell-based; details: Homo sapiens, HCT-116
TT cells = experiment: Tumor cell proliferation in vitro; format: cell-based, human; details: Homo sapiens
VEGFR and ERK activation = experiment: VEGF165-stimulated activation of VEGFR and ERK in HUVEC cells; format: cell-based, human; details: 50 ng/mL VEGF165, concentration-dependent
[7] = ref Phase I clinical study results of vandetanib; cited from earlier work
A375 cells = experiment: Tumor cell proliferation in vitro; format: cell-based, human; details: Homo sapiens, A-375

SMILES: N#CC1(c2ccc(NC(=O)c3cccnc3NCc3ccncc3)cc2)CCCC1 [Apatinib]
- RTV ±SD ([1]; 200 mg/kg): 4.2±1.2
- T/C ([1]; 200 mg/kg): 26.5%
- Terminal Tumor Volume ([1]; 200 mg/kg): 793.5±324.4** mm^3

SMILES: COc1ccc(CN2C3CC2CN(c2ccc(-c4cc(OCC(C)(C)O)cn5ncc(C#N)c45)cn2)C3)cn1 [Selpercatinib]
- ORR ([2]; platinum-pretreated patients ref 37): 61%

SMILES: N.N.[Cl][Pt][Cl] [Cisplatin]
- RTV ±SD [3]: 6.4±2.9
- T/C [3]: 62.0%
- Terminal Tumor Volume [3]: 1,580.0±952.4 mm^3
- RTV X±SD ([4]; 10 mg/kg): 5.0±3.9
- T/C ([4]; 10 mg/kg): 32.6%
- Terminal Tumor Volume ([4]; 10 mg/kg): 694.4±237.4** mm^3

SMILES: COc1cc2c(Nc3ccc(Br)cc3F)ncnc2cc1OCC1CCN(C)CC1 [vandetanib, reference compound]
- RTV ±SD ([1]; 50 mg/kg): 3.6±1.7
- T/C ([1]; 50 mg/kg): 23.0%
- Terminal Tumor Volume ([1]; 50 mg/kg): 690.9±259.8** mm^3
- RTV ±SD ([1]; 75 mg/kg): 2.3±1.0
- T/C ([1]; 75 mg/kg): 14.3%
- Terminal Tumor Volume ([1]; 75 mg/kg): 486.9±221.2** mm^3
- RTV ±SD ([5]; 12.5 mg/kg): 22.1±17.2
- T/C ([5]; 12.5 mg/kg): 108.1%
- Terminal Tumor Volume ([5]; 12.5 mg/kg): 2824.1±1001.2 mm^3
- RTV ±SD ([5]; 25 mg/kg): 11.4±4.7
- T/C ([5]; 25 mg/kg): 55.7%
- Terminal Tumor Volume ([5]; 25 mg/kg): 1719.9±822.4 mm^3
- RTV ±SD ([5]; 50 mg/kg): 7.2±1.4
- T/C ([5]; 50 mg/kg): 35.0%
- IC50 (KYSE-150 cells): 1500 ± 135 nM
- RTV ±SD ([6]; 25 mg/kg): 2.1±1.0
- T/C ([6]; 25 mg/kg): 34.1%
- Terminal Tumor Volume ([6]; 25 mg/kg): 302.4±91.1** mm^3
- RTV ±SD ([6]; 50 mg/kg): 1.0±0.4
- T/C ([6]; 50 mg/kg): 17.0%
- Terminal Tumor Volume ([6]; 50 mg/kg): 155.5±82.1** mm^3
- RTV ±SD ([6]; 75 mg/kg): 0.5±0.2
- T/C ([6]; 75 mg/kg): 8.9%
- Terminal Tumor Volume ([6]; 75 mg/kg): 100.1±62.5** mm^3
- IC50 (A498 cells): 1030 ± 42.7 nM
- IC50 (HUVEC cells): 117 nM
- activation of EGFR and downstream ERK (EGFR and ERK activation): significantly inhibited
- IC50 (SGC-7901 cells): 4370 ± 441 nM
- IC50 (CFPAC-1 cells): 336 ± 10 nM
- IC50 (A431 cells): 1140 ± 255 nM
- IC50 (BEL-7402 cells): 15100 ± 1130 nM
- IC50 (8305C cells): 1250 ± 96.3 nM
- RTV X±SD ([4]; 12.5 mg/kg): 5.2±1.9
- T/C ([4]; 12.5 mg/kg): 34.2%
- Terminal Tumor Volume ([4]; 12.5 mg/kg): 847.0±247.2** mm^3
- RTV X±SD ([4]; 25 mg/kg): 2.6±0.7
- T/C ([4]; 25 mg/kg): 16.8%
- Terminal Tumor Volume ([4]; 25 mg/kg): 489.8±273.9** mm^3
- RTV X±SD ([4]; 50 mg/kg): 1.3±0.6
- T/C ([4]; 50 mg/kg): 8.4%
- Terminal Tumor Volume ([4]; 50 mg/kg): 273.9±189.8** mm^3
- IC50 (HCT116 cells): 3190 ± 688 nM
- IC50 (TT cells): 3570 ± 38.2 nM
- activation of VEGFR and downstream ERK (VEGFR and ERK activation): significantly inhibited
- MTD [7]: 500 mg/day
- IC50 (A375 cells): 2190 ± 318 nM

SMILES: CO[C@]1(C(=O)N[C@@H](C)c2ccc(-n3cc(F)cn3)nc2)CC[C@H](c2nc(C)cc(Nc3cc(C)[nH]n3)n2)CC1 [Pralsetinib]
- ORR ([2]; platinum-pretreated patients ref 38): 61%
